For 32 molecules, IC50 results are on record in US9012446B2, “Amino-oxazines and amino-dihydrothiazine compounds as beta-secretase modulators and methods of use” (Amgen Inc., priority 2010, dated 2015).

Each structure is given as a SMILES string. Read-outs that look alike come from different tables or passages of the source.

In experiment [1] the target is BACE (Homo sapiens, UniProt P56817). Description: In vitro enzymatic BACE FRET assay. Format: biochemical. The conditions noted are these: average IC50, enzyme assay; read-out: BACE 1 FRET assay. Summed up: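 Fluorescence […] after Tris quench reports cleavage of a 50 nM quenched peptide substrate over 1 h. Beforehand, 0.2 nM enzyme sits 1 h with inhibitor dilutions. Buffer: 0.05 M acetate pH 4.2, 100 uM genapol, 10% DMSO final.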
Chain of BACE (P56817 46-501, species assumed): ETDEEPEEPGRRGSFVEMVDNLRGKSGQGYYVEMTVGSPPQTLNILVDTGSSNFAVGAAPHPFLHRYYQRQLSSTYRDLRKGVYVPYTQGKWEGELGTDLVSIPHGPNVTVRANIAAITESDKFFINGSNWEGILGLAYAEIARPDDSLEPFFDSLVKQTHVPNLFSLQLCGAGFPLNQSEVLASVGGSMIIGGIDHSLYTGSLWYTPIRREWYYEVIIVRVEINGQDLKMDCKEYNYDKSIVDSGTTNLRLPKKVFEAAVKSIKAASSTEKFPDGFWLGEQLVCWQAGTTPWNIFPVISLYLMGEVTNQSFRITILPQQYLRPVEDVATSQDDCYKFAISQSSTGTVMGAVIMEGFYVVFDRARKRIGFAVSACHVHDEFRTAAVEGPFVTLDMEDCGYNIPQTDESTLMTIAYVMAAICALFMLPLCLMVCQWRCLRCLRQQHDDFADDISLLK

In experiment [2] the test system is Aβ40. Description: In vitro BACE cell-based assay (Aβ40 sandwich ELISA, cells stably expressing APP). In short, it runs like this: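 Read-out is Aβ40 in cell supernatants, quantified by sandwich ELISA (capture 3 h, detection 2 h, both 4° C) with Delfia time-resolved fluorescence. Cells stably expressing APP were dosed across 10 concentrations from 100 μM or 10 μM top, 0.1% DMSO final; IC50 fitted from percent of control.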

The mark [3] stands for this setting: Homo sapiens, HEK293, average IC50, cell assay, HEK cells.
Setting [4] is: Homo sapiens, HEK293, average IC50, read-out: HEK cell assay.

On to `NC1=N[C@]2(CCO1)c1cc(-c3cccnc3F)ccc1Oc1cnc(-c3cccnc3F)cc12` [compound 100], for which the IC50 in experiment [1] was 49.6 nM; in experiment [2] (average IC50, cell assay, HEK cells), 184 nM.
Regarding `NC1=N[C@]2(CCO1)c1cc(-c3cccnc3F)ccc1Oc1c2cc(-c2ccnc(F)c2)nc1F` [compound 106], the IC50 in experiment [1] worked out at 1740 nM; in experiment [2] (setting [3]), 2640 nM.
As for `N#Cc1cccc(-c2ccc3c(c2)[C@]2(CCOC(N)=N2)c2cc(C4=CCOCC4)nc(F)c2O3)c1` [compound 233], the IC50 in experiment [1] is 1580 nM; in experiment [2] (setting [4]), 108 nM.
With `NC1=N[C@]2(COC1)c1cc(-c3cccnc3F)ccc1Oc1cnc(-c3ccnc(F)c3)cc12` [compound 70], the IC50 in experiment [1] was found to be 52.4 nM; in experiment [2] (setting [3]) it was 268 nM.
The corresponding values for `CC#Cc1cncc(-c2ccc3c(c2)[C@@]2(COCC(N)=N2)c2cc(C4=CCOCC4)cc(F)c2O3)c1` [compound 131] are 0.7 nM and 2.5 nM.
Turning to `CC(C)(C)COc1cc2c(c(F)n1)Oc1ccc(-c3cccnc3F)cc1[C@]21COCC(N)=N1` [Example 59B, (R)-1-fluoro-7-(2-fluoropyridin-3-yl)-3-(neopentyloxy)-2′,6′-dihydrospiro[chromeno[2,3-c]pyridine-5,3′-[1,4]oxazin]-5′-amine], the values for the IC50 in experiment [1] and in experiment [2] (setting [4]) were 84.9 nM and 370 nM, respectively.
The matching figures for `COc1cc2c(cn1)Oc1ccc(-c3cccc(F)c3)cc1[C@@]21COCC(N)=N1` [compound 252]: 10.6 nM and 50 nM.
In the case of `NC1=N[C@@]2(COC1)c1cc(-c3cc(F)ccc3F)ccc1Oc1ncc(-c3cccnc3)cc12` [compound 216], the IC50 was found to be 2.3 nM in experiment [1] and 2.8 nM in experiment [2] (setting [4]).
The corresponding values for `CC(C)(F)COc1cc(F)c2c(c1)[C@]1(CCSC(N)=N1)c1cc(-c3cccnc3F)ccc1O2` [Example 204, (S)-4′-fluoro-2′-(2-fluoro-2-methylpropoxy)-7′-(2-fluoropyridin-3-yl)-5,6-dihydrospiro[[1,3]thiazine-4,9′-xanthen]-2-amine] are 2.8 nM and 11.2 nM.
Take `NC1=N[C@@]2(COC1)c1cc(-c3cc(Cl)ccc3F)ccc1Oc1ncc(N3CCOCC3)cc12` [compound 93]: the IC50 came to 0.7 nM in experiment [1] and 3.9 nM in experiment [2] (setting [3]).
Take `CC(C)(C)C#Cc1cnc2c(c1)[C@]1(COCC(N)=N1)c1cc(-c3cncnc3)c(F)cc1O2` [compound 96]: the IC50 in experiment [1] is 1.2 nM; in experiment [2] (setting [3]) it was 0.6 nM.
On to `N#Cc1cccc(-c2ccc3c(c2)[C@]2(CCOC(N)=N2)c2cc(-c4ccnc(F)c4)nc(F)c2O3)c1` [compound 222], for which the figures for the IC50 in experiment [1] and in experiment [2] (setting [4]) were 170 nM and 1580 nM, respectively.
The corresponding values for `NC1=N[C@@]2(COC1)c1cc(-c3cccnc3F)ccc1Oc1cnc(OC(F)F)cc12` [Example 49, (S)-3-(difluoromethoxy)-7-(2-fluoropyridin-3-yl)-2′,6′-dihydrospiro[chromeno[2,3-c]pyridine-5,3′-[1,4]oxazin]-5′-amine] are 6.7 nM and 11.5 nM.
For the molecule `NC1=N[C@@]2(CCO1)c1cc(-c3cccnc3F)ccc1Oc1cnc(-c3cncc(Cl)c3)cc12` [compound 141], the IC50 was determined as 9.5 nM in experiment [1] and 22.5 nM in experiment [2] (setting [3]).
As to `NC1=N[C@@]2(CCO1)c1cc(-c3cccnc3F)ccc1Oc1ncc(C3=CCCOC3)cc12` [compound 268], the IC50 in experiment [1] amounted to 11.6 nM; in experiment [2] (setting [4]) it was 21.7 nM.
For `CC(C)(F)COc1cc(F)c2c(c1)[C@@]1(COCC(N)=N1)c1cc(-c3cccnc3F)ccc1O2` [37B], the figures for the IC50 in experiment [1] and in experiment [2] (setting [3]) were 110 nM and 64.1 nM, respectively.
`CCOc1cc2c(cn1)Oc1ccc(-c3cccc(F)c3)cc1[C@@]21COCC(N)=N1` [compound 256]: the IC50 was 4.3 nM in experiment [1] and 25.5 nM in experiment [2] (setting [4]).
The corresponding values for `CC(C)Oc1cc2c(cn1)Oc1ccc(-c3cccnc3)cc1[C@@]21COCC(N)=N1` [compound 258] are 2.7 nM and 4.2 nM.
On to `NC1=N[C@@]2(COC1)c1cc(-c3cccnc3F)ccc1Oc1c2cc(N2CCOCC2)nc1F` [Example 58, (S)-1-fluoro-7-(2-fluoropyridin-3-yl)-3-morpholino-2′,6′-dihydrospiro[chromeno[2,3-c]pyridine-5,3′-[1,4]oxazin]-5′-amine 2,2,2-trifluoroacetate], for which the IC50 in experiment [1] came out at 0.5 nM; in experiment [2] (setting [4]), 0.7 nM.
Take `NC1=N[C@@]2(CCO1)c1cc(-c3cccnc3)ccc1Oc1c2cc(-c2cncc(F)c2)nc1F` [compound 231]: the IC50 in experiment [1] turned out to be 0.8 nM; in experiment [2] (setting [4]) it was 0.3 nM.
The matching figures for `COc1cc(F)c2c(c1)[C@]1(CCOC(N)=N1)c1cc(-c3cccnc3F)ccc1O2` [compound 175, (4S)-4′-fluoro-7′-(2-fluoro-3-pyridinyl)-2′-methoxy-5,6-dihydrospiro[1,3-oxazine-4,9′-xanthen]-2-amine]: 38.3 nM and 93 nM.
The corresponding values for `NC1=N[C@]2(CCO1)c1cc(-c3cccnc3F)ccc1Oc1c(F)cc(C3=CCOCC3)cc12` [compound 169] are 3070 nM and 3400 nM.
Regarding `NC1=N[C@@]2(COC1)c1cc(-c3cccnc3F)ccc1Oc1c2cc(-c2cccnc2)nc1F` [compound 243], the values for the IC50 in experiment [1] and in experiment [2] (setting [4]) were 0.3 nM and 0.5 nM, respectively.
The corresponding values for `CC(C)(C)C#Cc1ccc2c(c1)[C@@]1(COCC(N)=N1)c1cc(C3=CCOCC3)cnc1O2` [compound 214] are 3.2 nM and 6.1 nM.
`NC1=N[C@@]2(COC1)c1cc(-c3cccnc3F)ccc1Oc1c(F)cc(C3CCOCC3)cc12` [Example 42, (S)-4′-fluoro-7′-(2-fluoropyridin-3-yl)-2′-(tetrahydro-2H-pyran-4-yl)-2,6-dihydrospiro[[1,4]oxazine-3,9′-xanthen]-5-amine]: the IC50 in experiment [1] stood at 0.4 nM; in experiment [2] (setting [3]) it was 2.4 nM.
`N#Cc1cccc(-c2ccc3c(c2)[C@@]2(CCOC(N)=N2)c2cc(C4=CCCOC4)nc(F)c2O3)c1` [compound 223]: the IC50 in experiment [1] was determined as 0.8 nM; in experiment [2] (setting [4]) it was 1.4 nM.
Regarding `COc1ccc2c(c1)C1(CCSC(N)=N1)c1cc(-c3cncnc3)ccc1O2` (stereo not shown) [compound 137], the IC50 in experiment [1] worked out at 1130 nM; in experiment [2] (setting [3]) it was 1140 nM.
The matching figures for `CC1(COc2cc(F)c3c(c2)[C@@]2(COCC(N)=N2)c2cc(-c4cccnc4F)ccc2O3)COC1` [compound 82]: 43 nM and 121 nM.
Consider `NC1=N[C@]2(CCS1)c1cc(-c3cccnc3F)ccc1Oc1cnc(C3=CCOCC3)cc12` [compound 194], for which the IC50 in experiment [1] turned out to be 473 nM; in experiment [2] (setting [4]), 937 nM.
Consider `NC1=N[C@@]2(CCO1)c1cc(-c3cccnc3F)ccc1Oc1c2cc(-c2cccnc2)nc1F` [Example 241, (S)-1-fluoro-7-(2-fluoropyridin-3-yl)-3-(pyridin-3-yl)-5′,6′-dihydrospiro[chromeno[2,3-c]pyridine-5,4′-[1,3]oxazin]-2′-amine], for which the IC50 in experiment [1] was 0.6 nM; in experiment [2] (setting [4]), 0.9 nM.
Regarding `CC(C)(C)C#Cc1cc2c(cn1)Oc1ccc(-c3cncc(F)c3)cc1[C@@]21CCOC(N)=N1` [compound 139], the IC50 in experiment [1] was determined as 12.8 nM; in experiment [2] (setting [3]), 6.9 nM.
The matching figures for `CC(C)(C#N)COc1cc2c(cn1)Oc1ccc(-c3cc(Cl)ccc3F)cc1[C@@]21COCC(N)=N1` [compound 127]: 0.3 nM and 1.4 nM.
